Laboratory results: article PMC10971807 (Marine Drugs, 2024)
“And” between values parts separate entries of the source, which are not always exact repeats. Equal entries are not always repeated. Where a SMILES comes first, the peptide text is derived from it. Bridges are numbered along the chain shown (N, C = ends). [ ]: non-standard residue; d: D form. Dab = NCC[C@H](N)C(=O)O; Dap = NC[C@H](N)C(=O)O

Key:
hα3β4 nAChR = hα3β4 nAChR (Homo sapiens, UniProt P30926+P32297); assay type: cell-based
hα4β2 nAChR = hα4β2 nAChR (Homo sapiens, UniProt P17787+P43681); assay type: cell-based
hα4β4 nAChR = hα4β4 nAChR (Homo sapiens, UniProt P30926+P43681); assay type: cell-based
hα9α10 nAChR = hα9α10 nAChR (Homo sapiens, UniProt Q9GZZ6+Q9UGM1); assay: cell-based; conditions: for IC50: IC50, inhibition of ACh-evoked currents at hα9α10 nAChRs
hα3β2 nAChR = hα3β2 nAChR (Homo sapiens, UniProt P17787+P32297); assay: cell-based
hα7 nAChR = hα7 nAChR (Homo sapiens, UniProt P36544); assay: cell-based
Chain of hα7 nAChR (P36544 23-502 limits assumed): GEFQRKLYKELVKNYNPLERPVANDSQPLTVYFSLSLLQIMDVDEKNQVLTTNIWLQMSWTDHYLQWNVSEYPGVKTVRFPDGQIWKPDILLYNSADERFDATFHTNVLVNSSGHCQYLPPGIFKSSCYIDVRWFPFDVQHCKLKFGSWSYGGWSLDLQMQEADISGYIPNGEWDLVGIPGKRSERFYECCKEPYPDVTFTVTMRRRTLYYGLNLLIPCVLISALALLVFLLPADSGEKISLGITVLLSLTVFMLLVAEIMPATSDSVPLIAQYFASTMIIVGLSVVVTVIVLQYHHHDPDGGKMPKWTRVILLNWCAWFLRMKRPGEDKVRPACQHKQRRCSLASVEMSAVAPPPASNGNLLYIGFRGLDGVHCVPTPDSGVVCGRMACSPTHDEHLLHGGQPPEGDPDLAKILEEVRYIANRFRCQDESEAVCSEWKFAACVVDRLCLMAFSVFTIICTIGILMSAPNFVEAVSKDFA

Chain of hα9α10 nAChR (Q9UGM1 26-479 limits assumed): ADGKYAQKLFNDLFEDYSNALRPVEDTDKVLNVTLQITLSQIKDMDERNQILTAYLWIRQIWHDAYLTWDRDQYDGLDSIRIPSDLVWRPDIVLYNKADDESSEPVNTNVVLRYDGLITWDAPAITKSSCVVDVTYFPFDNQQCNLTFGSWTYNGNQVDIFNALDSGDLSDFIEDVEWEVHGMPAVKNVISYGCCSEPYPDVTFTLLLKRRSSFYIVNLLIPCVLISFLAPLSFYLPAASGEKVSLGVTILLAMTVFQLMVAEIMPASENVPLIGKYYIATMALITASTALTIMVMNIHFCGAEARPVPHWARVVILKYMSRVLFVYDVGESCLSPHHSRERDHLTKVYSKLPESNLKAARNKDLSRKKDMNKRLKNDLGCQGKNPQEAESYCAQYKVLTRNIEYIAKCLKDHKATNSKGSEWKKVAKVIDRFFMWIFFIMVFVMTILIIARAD
Chain of hα9α10 nAChR (Q9GZZ6 25-450 limits assumed): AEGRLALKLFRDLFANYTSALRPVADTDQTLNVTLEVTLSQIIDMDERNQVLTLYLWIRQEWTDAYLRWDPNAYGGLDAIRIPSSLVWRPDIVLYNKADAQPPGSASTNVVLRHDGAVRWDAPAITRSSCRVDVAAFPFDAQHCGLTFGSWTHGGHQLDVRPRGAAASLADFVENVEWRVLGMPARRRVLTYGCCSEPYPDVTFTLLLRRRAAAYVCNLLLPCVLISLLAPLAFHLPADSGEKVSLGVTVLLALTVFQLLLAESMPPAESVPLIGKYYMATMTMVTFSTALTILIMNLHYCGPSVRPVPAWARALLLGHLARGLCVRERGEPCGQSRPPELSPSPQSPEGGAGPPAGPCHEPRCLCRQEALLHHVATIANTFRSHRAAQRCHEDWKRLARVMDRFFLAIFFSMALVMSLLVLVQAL
Chain of hα3β2 nAChR (P32297 32-505 limits assumed): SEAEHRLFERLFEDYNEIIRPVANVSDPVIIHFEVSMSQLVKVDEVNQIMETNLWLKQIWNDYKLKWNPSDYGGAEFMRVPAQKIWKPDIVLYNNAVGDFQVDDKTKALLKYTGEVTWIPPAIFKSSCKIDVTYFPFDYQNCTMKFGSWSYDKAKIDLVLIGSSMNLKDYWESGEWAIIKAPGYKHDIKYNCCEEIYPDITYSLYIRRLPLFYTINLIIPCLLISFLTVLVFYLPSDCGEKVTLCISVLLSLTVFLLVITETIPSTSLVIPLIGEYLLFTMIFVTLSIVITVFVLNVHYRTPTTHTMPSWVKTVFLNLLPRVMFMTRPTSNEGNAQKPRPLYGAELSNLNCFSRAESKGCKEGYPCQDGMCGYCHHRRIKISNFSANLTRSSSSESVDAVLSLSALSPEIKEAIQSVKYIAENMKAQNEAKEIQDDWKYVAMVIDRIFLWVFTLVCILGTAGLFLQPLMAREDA
Chain of hα3β2 nAChR (P17787 26-502 limits assumed): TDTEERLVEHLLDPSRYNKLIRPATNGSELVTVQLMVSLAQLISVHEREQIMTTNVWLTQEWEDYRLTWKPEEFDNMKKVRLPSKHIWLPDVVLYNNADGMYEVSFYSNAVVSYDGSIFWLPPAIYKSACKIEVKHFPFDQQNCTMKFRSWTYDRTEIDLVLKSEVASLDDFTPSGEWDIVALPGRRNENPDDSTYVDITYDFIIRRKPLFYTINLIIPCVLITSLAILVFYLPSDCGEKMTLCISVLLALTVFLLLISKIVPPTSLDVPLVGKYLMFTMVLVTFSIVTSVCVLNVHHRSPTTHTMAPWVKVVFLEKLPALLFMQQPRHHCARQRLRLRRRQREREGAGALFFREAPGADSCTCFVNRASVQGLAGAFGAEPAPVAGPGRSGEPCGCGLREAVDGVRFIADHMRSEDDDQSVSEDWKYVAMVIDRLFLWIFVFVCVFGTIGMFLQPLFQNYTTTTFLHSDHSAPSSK
Chain of hα4β4 nAChR (P43681 29-627 limits assumed): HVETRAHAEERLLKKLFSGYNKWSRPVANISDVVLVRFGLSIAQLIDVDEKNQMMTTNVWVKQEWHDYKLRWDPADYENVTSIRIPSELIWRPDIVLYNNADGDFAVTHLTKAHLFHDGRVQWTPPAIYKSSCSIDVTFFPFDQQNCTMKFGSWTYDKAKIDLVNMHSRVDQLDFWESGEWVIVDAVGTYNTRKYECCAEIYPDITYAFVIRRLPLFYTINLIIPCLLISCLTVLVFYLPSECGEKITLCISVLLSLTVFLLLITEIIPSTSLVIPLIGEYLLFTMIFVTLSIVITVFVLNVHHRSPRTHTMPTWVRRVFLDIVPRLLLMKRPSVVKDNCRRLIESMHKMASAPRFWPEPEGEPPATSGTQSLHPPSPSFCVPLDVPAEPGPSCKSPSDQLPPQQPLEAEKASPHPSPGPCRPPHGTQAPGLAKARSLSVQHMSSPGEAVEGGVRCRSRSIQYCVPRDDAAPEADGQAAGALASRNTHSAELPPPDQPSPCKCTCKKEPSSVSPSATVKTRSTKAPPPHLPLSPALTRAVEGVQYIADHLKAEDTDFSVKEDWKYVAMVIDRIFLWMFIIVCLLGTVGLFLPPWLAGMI
Chain of hα4β4 nAChR (P30926 22-498 limits assumed): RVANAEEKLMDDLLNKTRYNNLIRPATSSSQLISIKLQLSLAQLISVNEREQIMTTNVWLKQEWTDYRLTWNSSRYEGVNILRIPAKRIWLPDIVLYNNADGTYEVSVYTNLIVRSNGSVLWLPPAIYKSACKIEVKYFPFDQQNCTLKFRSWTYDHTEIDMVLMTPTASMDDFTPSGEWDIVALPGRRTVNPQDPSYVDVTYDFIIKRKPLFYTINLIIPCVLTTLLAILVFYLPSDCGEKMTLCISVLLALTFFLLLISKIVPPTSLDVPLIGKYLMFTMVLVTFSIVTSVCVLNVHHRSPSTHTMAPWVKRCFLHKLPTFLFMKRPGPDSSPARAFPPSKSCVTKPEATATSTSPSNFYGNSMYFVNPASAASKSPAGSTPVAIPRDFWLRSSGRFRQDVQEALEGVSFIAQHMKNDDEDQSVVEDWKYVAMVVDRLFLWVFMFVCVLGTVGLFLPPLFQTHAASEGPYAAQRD
Chain of hα4β2 nAChR (P43681 29-627 limits assumed): as the sequence (P43681 29-627 limits assumed) above
Chain of hα4β2 nAChR (P17787 26-502 limits assumed): as the sequence (P17787 26-502 limits assumed) above
Chain of hα3β4 nAChR (P32297 32-505 limits assumed): as the sequence (P32297 32-505 limits assumed) above
Chain of hα3β4 nAChR (P30926 22-498 limits assumed): as the sequence (P30926 22-498 limits assumed) above

Structure (SMILES): CC(C)C[C@@H]1NC(=O)[C@H](CCC(=O)O)NC(=O)[C@@H]2CCCN2C(=O)[C@H](Cc2c[nH]cn2)NC(=O)[C@H](CC(N)=O)NC(=O)[C@H](C(C)C)NC(=O)[C@H](CO)NC(=O)[C@@H]2CSSC[C@H](NC(=O)CN)C(=O)N[C@@H](CSSC[C@@H](C(N)=O)NC1=O)C(=O)N[C@@H](CO)C(=O)N[C@@H](Cc1c[nH]cn1)C(=O)N1CCC[C@H]1C(=O)N[C@@H](C)C(=O)N2 [PeIA] (H-GCCSHPACSVNHPELC-NH2; disulfide 2-8, 3-16)
- Inhibition of ACh-evoked currents at hα3β4 (hα3β4 nAChR): < 1%
- Inhibition of ACh-evoked currents at hα4β2 (hα4β2 nAChR): < 1%
- Inhibition of ACh-evoked currents at hα4β4 (hα4β4 nAChR): < 1%

Structure (SMILES): CC(C)C[C@@H]1NC(=O)[C@H](CCC(=O)O)NC(=O)[C@@H]2CCCN2C(=O)[C@H](Cc2c[nH]cn2)NC(=O)[C@H](CC(N)=O)NC(=O)[C@H](C(C)C)NC(=O)[C@H](CN)NC(=O)[C@@H]2CSSC[C@H](NC(=O)CN)C(=O)N[C@@H](CSSC[C@@H](C(N)=O)NC1=O)C(=O)N[C@@H](CN)C(=O)N[C@@H](Cc1c[nH]cn1)C(=O)N1CCC[C@H]1C(=O)N[C@@H](C)C(=O)N2 [PeIA[S4Dap, S9Dap]] (H-GCC[Dap]HPAC[Dap]VNHPELC-NH2; disulfide 2-8, 3-16)
- Enhancement of activity (IC50) at hα9α10 relative to PeIA (hα9α10 nAChR): ~24 fold
- Potency at hα9α10 relative to dimeric PeIA (hα9α10 nAChR): approximately two-fold
- IC50 (hα9α10 nAChR): 0.93 nM
- IC50 (hα3β2 nAChR): 32.8 nM
- IC50 (hα7 nAChR): 162 nM

Structure (SMILES): CC(C)C[C@@H]1NC(=O)[C@H](CCC(=O)O)NC(=O)[C@@H]2CCCN2C(=O)[C@H](Cc2cnc[nH]2)NC(=O)[C@H](CC(N)=O)NC(=O)[C@H](C(C)C)NC(=O)[C@H](CO)NC(=O)[C@@H]2CSSC[C@H](NC(=O)CN)C(=O)N[C@@H](CSSC[C@@H](C(N)=O)NC1=O)C(=O)N[C@@H](CO)C(=O)N[C@@H](Cc1cnc[nH]1)C(=O)N1CCC[C@H]1C(=O)N[C@@H](C)C(=O)N2 [PeIA] (H-GCCSHPACSVNHPELC-NH2; disulfide 2-8, 3-16)
- IC50 (hα3β2 nAChR): 59.8 nM

Structure (SMILES): CC(C)C[C@@H]1NC(=O)[C@H](CCC(=O)O)NC(=O)[C@@H]2CCCN2C(=O)[C@H](Cc2c[nH]cn2)NC(=O)[C@H](CC(N)=O)NC(=O)[C@H](C(C)C)NC(=O)[C@H](CO)NC(=O)[C@@H]2CSSC[C@H](NC(=O)CN)C(=O)N[C@@H](CSSC[C@@H](C(N)=O)NC1=O)C(=O)N[C@@H](CCN)C(=O)N[C@@H](Cc1c[nH]cn1)C(=O)N1CCC[C@H]1C(=O)N[C@@H](C)C(=O)N2 [PeIA[S4Dab]] (H-GCC[Dab]HPACSVNHPELC-NH2; disulfide 2-8, 3-16)
- Enhancement of activity (IC50) at hα9α10 relative to PeIA (hα9α10 nAChR): ~ 4 fold
- IC50 (hα9α10 nAChR): 5.32 nM and 5.3 nM

Structure (SMILES): CC(C)C[C@@H]1NC(=O)[C@H](CCC(=O)O)NC(=O)[C@@H]2CCCN2C(=O)[C@H](Cc2c[nH]cn2)NC(=O)[C@H](CC(N)=O)NC(=O)[C@H](C(C)C)NC(=O)[C@H](CN)NC(=O)[C@@H]2CSSC[C@H](NC(=O)CN)C(=O)N[C@@H](CSSC[C@@H](C(N)=O)NC1=O)C(=O)N[C@@H](CO)C(=O)N[C@@H](Cc1c[nH]cn1)C(=O)N1CCC[C@H]1C(=O)N[C@@H](C)C(=O)N2 [PeIA[S9Dap]] (H-GCCSHPAC[Dap]VNHPELC-NH2; disulfide 2-8, 3-16)
- Enhancement of activity (IC50) at hα9α10 relative to PeIA (hα9α10 nAChR): ~5 fold
- IC50 (hα9α10 nAChR): 4.67 nM

Structure (SMILES): CC(C)C[C@@H]1NC(=O)[C@H](CCC(=O)O)NC(=O)[C@@H]2CCCN2C(=O)[C@H](Cc2c[nH]cn2)NC(=O)[C@H](CC(N)=O)NC(=O)[C@H](C(C)C)NC(=O)[C@H](CO)NC(=O)[C@@H]2CSSC[C@H](NC(=O)CN)C(=O)N[C@@H](CSSC[C@@H](C(N)=O)NC1=O)C(=O)N[C@@H](CN)C(=O)N[C@@H](Cc1c[nH]cn1)C(=O)N1CCC[C@H]1C(=O)N[C@@H](C)C(=O)N2 [PeIA[S4Dap]] (H-GCC[Dap]HPACSVNHPELC-NH2; disulfide 2-8, 3-16)
- Enhancement of activity (IC50) at hα9α10 relative to PeIA (hα9α10 nAChR): ~13 fold
- IC50 (hα9α10 nAChR): 1.74 nM
